Data: patent US20160341734A1, “USE OF FLUOROQUINOLONE ANTIBIOTICS” (POSTECH ACADEMY-INDUSTRY FOUNDATION, priority 2015, published 2016)
Counter-ions that a name gives are not always drawn.

Key:
[1] = test system: pseudomonas; test: multi-photon fluorescence in bacteria; type: cell-based
Description: (§1) Bacteria (pseudomonas and staphylococcus) used in the experiment, hydrochloride moxifloxacin, and a biaxial scanner (a galvano scanner of x axis and a galvano scanner of y axis) to be used by a point scanning method were prepared.
(§2) In this Experimental Example, a two-photon microscope using a femtosecond laser as a light source was used, and the multi-photon fluorescence was equally measured under the following condition throughout an experimental process.
(§3) Excitation wavelength: 780 nm for vigamox(moxifloxacin)
(§4) The bacteria were incubated under the following condition.
pseudomonas-nutrient broth (nutrient medium)
(§5) 1. A bacteria stock was put in a medium of 3 mL and cultured after overnight incubation (37° C. and 200 rpm).
(§6) 2. Here, 0.03 mL of the cultured bacteria stock was taken and put in a fresh medium of 3 mL, and then cultured (37° C. and 200 rpm) up to OD600=1.5.
3. […]
(§7) In order to compare fluorescence expression of hydrochloride moxifloxacin with auto-fluorescence expression of bacteria, fluorescence expression of bacteria (pseudomonas and staphylococcus) which are not applied with hydrochloride moxifloxacin was first photographed and intensity of the auto-fluorescence expression was recorded. Subsequently, the hydrochloride moxifloxacin was administered to the medium and then the intensity of the fluorescence expression after the incubation time was measured.

[2] = test system: staphylococcus; test: multi-photon fluorescence in bacteria; type: cell-based
Description: as §1, §2, §3, §4
staphylococcus-lysogeny broth (LB medium)
as §5, §6
3. […]
as §7

[3] = two-photon excitation and emission spectrum of the antibiotics (femtosecond laser); type: physicochemical
From the text: 3A illustrates an excitation spectrum of hydrochloride moxifloxacin and gatifloxacin. Here, an X axis represents a wavelength (nm) of a femtosecond laser light source used in the experiment, and a degree (a.u.) of two-photon excited fluorescence (TPF) at 700 nm to 800 nm which is a measuring range of a femtosecond laser wavelength is illustrated as a Y axis. Through the graph, it can be seen that hydrochloride moxifloxacin and gatifloxacin may represent fluorescent signals in the light source having a range of 700 nm to 800 nm which is a near-infrared wavelength. Further, in the case where the wavelength of the light source is 700 nm as shown in the intensity of the excited fluorescence graph of the Y axis, it can be seen that a fluorescent signal stronger than other wavelengths is shown. FIG. 3B illustrates an emission spectrum representing a fluorescence expression degree of each antibiotic when the femtosecond laser is applied to hydrochloride moxifloxacin and gatifloxacin. The X axis represents a wavelength (nm) and the Y axis represents the degree (a.u.) of the TPF. In the graph, in the hydrochloride moxifloxacin and the gatifloxacin, it can be seen that the fluorescent signals having wavelengths of 450 nm to 550 nm are frequently expressed and the wavelength of about 520 nm is expressed most strongly.

[4] = test system: corneal cells of the mouse; test: multi-photon fluorescence of corneal cells after dropping the antibiotic in the eye; type: in vivo
Description: Blab/c female mice after five or six weeks, gatifloxacin, hydrochloride moxifloxacin, and a multi-photon microscope including a biaxial scanner (a galvano scanner of x axis and a galvano scanner of y axis) to be used by a point scanning method were prepared.
In this Experimental Example, a two-photon microscope using a femtosecond laser as a light source was used and the multi-photon fluorescence was equally measured under the following condition throughout an experimental process.
Excitation wavelength: 780 nm for vigamox (moxifloxacin)
In order to compare fluorescence expression of hydrochloride moxifloxacin with auto-fluorescence expression of the corneal cells of the mouse, the corneal cells of the mouse which are not applied with hydrochloride moxifloxacin were first photographed.
The Blab/c mouse to be used in the experiment was anesthetized and then fixed to an eye holder for photographing the eye, and photographed by the two-photon microscope. Laser power was set as 30.8 mW, and in this case, the intensity of auto-fluorescence of the photographed mouse cornea was recorded.
In order to measure the fluorescence expression degree of the mouse cornea by vigamox (hydrochloride moxifloxacin), hydrochloride moxifloxacin of 10 μl was dropped in a left eye of the mouse and an eyelid was closed for 30 seconds. […]

[5] = single-photon fluorescence, ultraviolet-ray area; cited from earlier work

SMILES | difference in signal intensity after versus before administering [1] | fluorescence signal intensity after administering ([1]; FIG. 18, before administering 9.5334 a.u.) [a.u.] | difference in signal intensity after versus before administering [2] [times] | fluorescence signal intensity after administering ([2]; FIG. 18, before administering 10.4277 a.u.) [a.u.] | emission wavelength expressed most strongly ([3]; two-photon emission spectrum) | light source wavelength with fluorescent signal stronger than other wavelengths ([3]; two-photon excitation spectrum, 700 nm to 800 nm measured) [nm] | fluorescence intensity in corneal endothelium layer versus auto-fluorescence ([4]; corneal endothelium layer, FIGS. 5E, 6E vs 4E) | intensity of fluorescence expression in cornea versus auto-fluorescence ([4]; laser power 30.8 mW, same as auto-fluorescence) | excited light expressing the fluoroquinolone antibiotics (wavelength) [5] [nm]
COc1c(N2C[C@@H]3CCCN[C@@H]3C2)c(F)cc2c(=O)c(C(=O)O)cn(C3CC3)c12 [hydrochloride moxifloxacin, moxifloxacin] | about 10 times | 101.2196 | 10 | 110.3189 |  |  |  |  | 
COc1c(N2CCNC(C)C2)c(F)cc2c(=O)c(C(=O)O)cn(C3CC3)c12 (stereo not drawn) [gatifloxacin] |  |  |  |  | about 520 nm | 700 | higher than the fluorescence intensity of the auto-fluorescence expression | much larger than that of the auto-fluorescence expression | 292
